Source: patent US6280760A, “Peptide-coated implants and methods for producing same” (Merck Patent Gesellschaft mit beschraenkter Haftung, priority 1997, dated 2001)

Legend:
MC3T3 H1 osteoblasts [1] = assay: Adhesion of MC3T3 H1 osteoblasts to PMMA moulded articles coated with acrylate RGD peptides; assay type: cell-based, mouse
Description: For the covalent coupling of these peptides to polymerized PMMA (polymethyl methacrylate) surfaces, appropriate shaped articles of differing porosity (diameter: 10 mm; height: 2 mm) were prepared from three different PMMA components.
Bone cement based on PMMA (Merck KGaA, Germany, Licence No. 5181.00.00) corresponding to the product description (40 g of powder+20 ml of liquid).
10 g of PMMA/PHEMA (polyhydroxyethyl methacrylate) granules, particle size 0.5-0.6 mm (Biomet) were mixed with 1.3 ml of an HEMA solution (68.6% HEMA, 29.4% TEGMA [triethylene glycol dimethacrylate], 2% tBPB, [tert-butyl peroxybenzoate]) and adhered by means of this to a porous support material.
10 g of PMMA granules (Plex Y7H, Rohm, Germany), particle fraction 0.7-2 mm were mixed with 1.5 ml of a methyl methacrylate (MMA) solution (68.6% MMA, 29.4% TEGMA, 2% tBPB) and adhered by this means to a porous support material.
For the covalent coupling of the acrylate peptides to the prepolymerized PMMA moulded articles, stock solutions of the acrylate peptides 1, 2, 3 and 4 were prepared in a final concentration of 100 μM in each case in DMSO/0.2% camphorquinone (w/v). Then, by dilution with isopropanol/0.2% camphorquinone (w/v), concentration series having final peptide concentrations of 0.1 nM, 1 nM, 10 nM, 100 nM, 1 μM and 10 μM in each case were prepared. The moulded articles were incubated in daylight and at room temperature for 2 hours and then stored at 4° C. in the dry state. Before use, the samples were washed with PBS, pH 7.4, to remove unbound peptides and stored at 4° C. in PBS, pH 7.4, overnight.
By addition of 250 μl/moulded article each of a 5% strength BSA solution in PBS, pH 7.4, and subsequent incubation for 2 hours at room temperature and washing once with PBS, pH 7.4, non-specific cell-binding sites were blocked.
Subsequently, the adhesion of osteoblasts of the MC3T3 H1 line, obtained from the calvaria of neonatal mice (Heermeier et al., 1995, Cells and Materials 5: 309-321) to the above-described peptide-coated surfaces was investigated.
The MC3T3 H1 osteoblasts were inoculated at an inoculation density of 48,000 cells/cm^2, as described above, in Costar 48-well plates, with PMMA moulded articles coated with RGD peptide and then incubated for 1 hour at 37° C., 95% atmospheric humidity and 5% CO2. Cells non-adhered during the experiment were then washed off twice with PBS, pH 7.4.
(§1) The quantification of the adhered cells was carried out indirectly via the activity determination of the cellular enzyme N-acetylhexosaminidase using an appropriate standard curve according to the method of Landegren (1984, J. Immunol. Methods, 67: 379-388).

osteoblast cultures = assay: Adhesion of the different osteoblast cell species to thiolpeptide-coated BSA-polystyrene surfaces (statements over all cultures); assay type: cell-based, mouse, human, rat; conditions: all osteoblast cultures employed
Description: (§2) The covalent coupling of the peptides according to the invention with sulphosuccinimidyl 4-(p-maleimidophenyl)butyrate (sulpho-SMPB) to culture surfaces of polystyrene precoated with bovine serum albumin (BSA) was accomplished following the established processes of Singer et al., 1987, J. Cell. Biol. 104: 573, or of Ruoslahti et al. (1982, Methods. Enzymol., 82: 803-831).
(§3) To do this, 48-well plates (Costar, "non-tissue culture treated", Art. No. 3547) were each coated with 250 μl of PBS (phosphate-buffered saline), pH=8.3, 2% BSA, per well and incubated overnight at room temperature in order to generate a BSA layer on the polystyrene. The plates were then washed with 250 μl of PBS, pH=8.3, per well and incubated at room temperature for 1 hour with 250 μl each of a solution containing 100 μg/ml of SMPB in PBS, pH 8.3. Washing of the wells was then carried out three times using 250 μl of PBS, pH 8.3, each time. For the preparation of the coating solutions, the appropriate thiol-RGD peptide was prepared in the following final concentrations in PBS, pH 8.3: 1 nM, 10 nM, 100 nM, 1 μM, 10 μM, 100 μM and 1 mM. […]
as §1

MC3T3 H1 osteoblasts [2] = assay: Adhesion of MC3T3 H1 osteoblasts to BSA-pretreated polystyrene surfaces coated with thiol-RGD peptides via sulpho-SMPB; assay type: cell-based, mouse; conditions: for stimulation of the adhesion of cultured mouse MC3T3 H1 osteoblasts: BSA-pretreated polystyrene, peptide coupled via sulpho-SMPB, FIG. 2; for maximum adsorption rate (of the inoculated cells): MC3T3 H1 mouse osteoblasts, 48,000 cells/cm^2, 1 hour
Description: as §2
To do this, 48-well plates (Costar, "non-tissue culture treated", Art. No. 3547) were each coated with 250 μl of PBS (phosphate-buffered saline), pH=8.3, 2% BSA, per well and incubated overnight at room temperature in order to generate a BSA layer on the polystyrene. The plates were then washed with 250 μl of PBS, pH=8.3, per well and incubated at room temperature for 1 hour with 250 μl each of a solution containing 100 μg/ml of SMPB in PBS, pH 8.3. Washing of the wells was then carried out three times using 250 μl of PBS, pH 8.3, each time. For the preparation of the coating solutions, the appropriate thiol-RGD peptide was prepared in the following final concentrations in PBS, pH 8.3: 1 nM, 10 nM, 100 nM, 1 μM, 10 μM, 100 μM and 1 mM. After addition of 250 μl each of coating solution/well, the plates were incubated at room temperature overnight and then washed three times with PBS, pH 8.3. By addition of 250 μl each of a 5% strength BSA solution in PBS, pH 7.4, subsequent incubation for 2 hours at room temperature and washing with PBS, pH 7.4, non-specific cell-binding sites were blocked. Polystyrene surfaces, which from the coating were treated with a 5% strength BSA solution identically to the positive samples, functioned as negative coating controls. The adhesion of four cell cultures which were obtained from three different species was then investigated on the abovementioned surfaces coated with RGD peptide:
osteoblast cell line MC3T3 H1, obtained from the calvaria of neonatal mice (Heermeier et al., 1995, Cells and Materials, 5: 309-321), and
The cell species described were inoculated with an inoculation density of 48,000 cells/cm^2 into, as described above, Costar-48 well plates coated with RGD peptide, and then incubated for 1 hour at 37° C., 95% atmospheric humidity and 5% CO2. Cells unadhered during the experiment were then washed off twice with PBS, pH 7.4.
as §1

[3] = system: human melanoma cell line M21L; assay: Adhesion of alphav beta3-/alphav beta5-negative control cells M21L to thiolpeptide-coated BSA-polystyrene surfaces; assay type: cell-based; conditions: BSA-pretreated polystyrene coated with thiolpeptide
Description: as §2, §3, §1

primary rat osteoblasts = assay: Adhesion of primary rat osteoblasts to BSA-pretreated polystyrene surfaces coated with thiol-RGD peptides via sulpho-SMPB; assay type: cell-based; conditions: 48,000 cells/cm^2, 1 hour
Description: as §2, §3, §1

[4] = system: primary human osteoprogenitor cells; assay: Adhesion of primary human osteoprogenitor cells to BSA-pretreated polystyrene surfaces coated with thiol-RGD peptides via sulpho-SMPB; assay type: cell-based; conditions: 48,000 cells/cm^2, 1 hour
Description: as §2, §3, §1

[5] = system: primary human osteoblasts; assay: Adhesion of primary human osteoblasts to BSA-pretreated polystyrene surfaces coated with thiol-RGD peptides via sulpho-SMPB; assay type: cell-based; conditions: 48,000 cells/cm^2, 1 hour
Description: as §2, §3, §1

cyclo(RGDf[acrylic-ahx-tEG-tEGK]) [acrylate peptide 4]
cell adsorption rates increased in comparison with uncoated surfaces (MC3T3 H1 osteoblasts [1]; bone cement shaped articles, FIG. 8): 5-15 fold
maximal adsorption rates (MC3T3 H1 osteoblasts [1]; different PMMA moulded articles, 48,000 cells/cm^2, 1 hour): 80-100%
EC50 (MC3T3 H1 osteoblasts [1]; different PMMA moulded articles, read-out: half-maximal cell bindings, RGD peptide concentration in the coating solution): 0.001 to 10 µM
cell adsorption rates increased in comparison with uncoated surfaces (MC3T3 H1 osteoblasts [1]; porous PMMA/PHEMA granule shaped articles, FIG. 9): 2-5 fold
cell adsorption rates increased in comparison with uncoated surfaces (MC3T3 H1 osteoblasts [1]; porous Plex Y7H granule shaped articles, FIG. 10): 2-3 fold

cyclo-RGDfK NH--CO--CH2 --CH2 --CO--NH--CH2 --CH2 --S-- (sulpho-SMPB) [thiolpeptide 2-(sulpho-SMPB) derivative]
cell adsorption rates raised compared with 5% BSA-coated surfaces (osteoblast cultures): 20-40 fold
stimulation of the adhesion of cultured mouse MC3T3 H1 osteoblasts (MC3T3 H1 osteoblasts [2]): strong and dose-dependent stimulation
maximum adsorption rate (of the inoculated cells) (MC3T3 H1 osteoblasts [2]): 90-100%
cell adhesion of alphav beta3-/alphav beta5-negative control cells (M21L) [3]: do not show any significant cell adhesion
maximum adsorption rate (of the inoculated cells) (primary rat osteoblasts): about 70%
maximum adsorption rate (of the inoculated cells) [4]: about 80%
maximum adsorption rate (of the inoculated cells) [5]: about 80%

cyclo-RGDfK NH--CO--CH2 --CH2 --S-- (sulpho-SMPB) [thiolpeptide 1-(sulpho-SMPB) derivative]
cell adsorption rates raised compared with 5% BSA-coated surfaces (osteoblast cultures): 20-40 fold
stimulation of the adhesion of cultured mouse MC3T3 H1 osteoblasts (MC3T3 H1 osteoblasts [2]): strong and dose-dependent stimulation
maximum adsorption rate (of the inoculated cells) (MC3T3 H1 osteoblasts [2]): 90-100%
cell adhesion of alphav beta3-/alphav beta5-negative control cells (M21L) [3]: do not show any significant cell adhesion
maximum adsorption rate (of the inoculated cells) (primary rat osteoblasts): about 70%
maximum adsorption rate (of the inoculated cells) [4]: about 80%
maximum adsorption rate (of the inoculated cells) [5]: about 80%

cyclo-RGDvE CO--NH--CH2 --CH2 --CH2 --CH2 --CH2 --CO--NH--CH2 --CH2 --S-- (sulpho SMPB) [thiolpeptide 3-(sulfo-SMPB), reference compound]
stimulation of the adhesion of cultured mouse MC3T3 H1 osteoblasts (MC3T3 H1 osteoblasts [2]): markedly weaker effect

cyclo-RβADfK-NH--CO--CH2 --CH2 --S-- (sulpho-SMPB) [thiolpeptide control, reference compound]
stimulation of the adhesion of cultured mouse MC3T3 H1 osteoblasts (MC3T3 H1 osteoblasts [2]): no significant effect
